The record followed here is patent US20090076029A1 (Palatin Technologies, Inc., priority 2007, published 2009).

For this assay, the system named is T1, MC4-R.
T1 construct: expressed in transfected cells; host or cells: HEK-293
In kind it is cell-based. How it is done:
Antagonists of AgRP. […] The experimental protocol was essentially as described above for the antagonist assay. […] HEK-293 cells expressing MC4-R were suspended in 10 mM HEPES (pH 7.5) and Earle's Balanced Salt Solution with the phosphodiesterase inhibitor IBMX. The cells were pre-incubated for 30 minutes with the test compounds over a concentration of 0.5 nM to 5000 nM. The cells were then treated with AgRP (100 nM) and incubated for 1 hour. Cells were lysed and cAMP was measured using an EIA kit (Amersham).

`CC(C)C[C@@H]1CN(C(=O)[C@H](N)Cc2ccc(Cl)cc2Cl)[C@@H](CCCNC(=N)N)CN1CCc1ccc2ccccc2c1` [Example 4, N-{3-[1-[2(R)-Amino-3-(2,4-dichloro-phenyl)-propionyl]-5(R)-isobutyl-4-(2-naphthalen-2-yl-ethyl)-piperazin-2(S)-yl]-propyl}-guanidine]: the “activity on AgRP induced inverse agonism” value was “antagonistic activity”.
